Reference: patent publication EP1377579B1 (Aventis Pharmaceuticals Inc., priority 2000, dated 2002)
Where two headings read alike, the source gives them in different places.

Experiments:
in vivo = conditions: male, Hsd:ICR (CD-1), mouse, plasma
Procedure: (§1) Male mice are given single intravenous cassette doses of CDK inhibitor compounds.
(§2) Doses are adjusted for the weight of the individual dihydrochloride and trihydrochloride salts. The compounds are stored desiccated within a closed cabinet at room temperature before use. Dose levels are prepared on the morning of each study.
(§3) A single intravenous cassette dose (18 or 15 mg/kg free base) is administered. For each compound, this is equivalent to a dose of approx. 3 mg/kg free base. […] The dose is administered at a volume of 10 ml/kg (total volume of approximately 0.25 ml/animal).
(§4) Male mice (Hsd:ICR (CD-1® SD®), Harlan), each weighing approximately 20 - 30 g at the start of the study. […] Water is available ad libitum throughout the study.
(§5) Dose Administration and Sample Collection: • A single cassette dose of 5-6 compounds is administered by bolus injection into the tail vein over a 10 - 15-second period. […] Whole blood (approximately 0.6 ml/sample) is obtained by cardiac puncture and transferred to 3 ml glass tubes containing 45 U sodium heparin.
(§6) Sample Processing: Plasma: Whole blood is centrifuged at approximately 3,200 rpm for 10 min at approximately 5°C and the plasma (approx. 0.3 ml/sample) is transferred to chilled plastic vials and stored at approx. -70°C until bioanalysis.
(§7) Sample Analysis: Concentrations of each test article in plasma are quantitated by a non-validated method based on LC/MS using the following protocol.
(§8) Samples are removed from the freezer, allowed to thaw at room temperature, and vortexed to insure complete homogenization prior to sample manipulation. Samples are then prepared according to the following scheme: • 1. transfer 48 µL of plasma (blank mouse sample) into a 12 x 75 mm test tube. • 2. add 12 µL of working standard to the blank plasma for standard curve preparation. • 3. […] Inject 25 µL on LC/MS.
(§9) Data Analysis: Concentrations of Compounds in plasma of individual animals are determined by bioanalytics. […] Statistical analyses are limited to simple expressions of variation (mean and standard deviation). The plasma AUC (area-under-curve) is determined by the linear trapezoidal rule. […] All PK parameters are determined by noncompartmental methods using WinNonlin version 3.0 (Pharsight Corp). Plasma vs. time profiles are prepared by Sigma Plot (SPSS, Inc.).

HL-60 = experiment: In vitro proliferation assay (MTT), HL-60; format: cell-based; conditions: Homo sapiens
How it was run: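 Tetrazolium (MTT) proliferation test following a 3-day treatment with compound. Read-out is optical density at 570 nm after DMSO solubilization.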

[1] = Bioavailability experiment in mice given single intravenous cassette doses; conditions: for Conc. (ng/ml) in plasma / Conc. in plasma: mice; for Conc. (ng/ml) in plasma: 24 h, BLQ = below assay quantification limit; for Cls: mice plasma, single intravenous cassette dose; for Conc. in plasma: single 15 mg/kg intravenous cassette dose (3 mg/kg/compound), BLQ = below assay quantification limit (approximately 1 ng/ml)
Procedure: as §1, §2, §3, §4, §5, §6, §7, §8, §9

Colo-205 = experiment: In vitro proliferation assay (MTT), Colo-205; format: cell-based; conditions: Homo sapiens
How it was run: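 Colo-205 cells were seeded at 1000–2500 cells/well and allowed to attach overnight, then exposed to compound for 3 days. Viable cells were measured by MTT reduction (2–4 h, 37 °C), with DMSO-solubilised dye read at 570 nm. IC50 was derived from concentration–response data.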

MDA-MB-435 = experiment: In vitro proliferation assay (MTT), MDA-MB-435; format: cell-based, human; conditions: Homo sapiens
How it was run: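 IC50 values come from absorbance at 570 nm after MTT staining of cells grown with compound for 3 days. Seeding density was 1000 to 2500 cells/well, depending on the line.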

cdk4/cyclin D1 = cdk4/cyclin D1 (Homo sapiens, UniProt P11802); experiment: Cyclin-dependent kinase assay, cdk4/cyclin D1; format: biochemical; conditions: cyclin D1/cdk4; GST-pRb substrate, 10 µM ATP
cdk2/cyclin E = cdk2/cyclin E (Homo sapiens, UniProt P24941); experiment: Cyclin-dependent kinase assay, cdk2/cyclin E; conditions: CDK2 IC50, nM, GST-pRb substrate, 10 µM ATP
[2] = system: PC-3 Human Prostate Tumors; experiment: PC-3 human prostate tumor xenograft in nude mice; format: in vivo; design: unit not given here
Procedure: Antitumor efficacy is assessed using two subcutaneous human tumor xenograft models. The studies are performed using conventional assay techniques. Briefly, HL-60 (leukemia, 5 x10^5 cells) and PC-3 (prostate, 5 x 10^6 cells) tumor cells are injected subcuateously into nude mice (Crl-CD1-Br-nu, Charles River Laboratory, Wilmington, MA). Dosing with compounds began when tumors reached 50 to 100 mm^3. The dose route/schedule for the test compounds is ip/qld (5x/wk). The test doses are set based on the maximum tolerated dose (MTD). […] The test doses for the efficacy studies are set at 1/3rd the MTD (low dose) and the MTD (high dose). The results are shown in Tables 4 and 5 (HL-60, leukemia) (PC-3, prostate cancer). The length of the treatment phase is dependent on the tumor growth rate for the two models. This treatment phase is typically about 3 weeks for the HL-60 model and about 5 weeks for the PC-3 model. […] Dosing with flavopiridol is for the same time frame as for the experimental compounds in both xenograft models. Tumor volume (twice weekly) and body weights (once weekly) are monitored throughout the course of the treatment phase of the experiment. Tumor sizes are measured by external caliper measurements of protruding tumor. Volumes are calculated using the following formula: volume =½ (a x b2), where b is the smaller of two perpendicular diameters.

[3] = Cassette #1, single 18 mg/kg intravenous cassette dose
[4] = 3 mg/kg/compound (18 mg/kg Total Dose), Cassette #1
[5] = HL-60, read-out: HL-60 Leuk. (IC50 µM)
[6] = Cassette #2, single 18 mg/kg intravenous cassette dose
[7] = 3 mg/kg/compound (18 mg/kg Total Dose), Cassette #2
[8] = COLO 205, read-out: Colo-205 Colon (IC50 µM)
[9] = MDA-MB-435, read-out: MB-435 Breast (IC50 µM)
[10] = 3 mg/kg/compound (15 mg/kg Total Dose), Cassette #3

Sequence of cdk4/cyclin D1 (P11802 whole entry): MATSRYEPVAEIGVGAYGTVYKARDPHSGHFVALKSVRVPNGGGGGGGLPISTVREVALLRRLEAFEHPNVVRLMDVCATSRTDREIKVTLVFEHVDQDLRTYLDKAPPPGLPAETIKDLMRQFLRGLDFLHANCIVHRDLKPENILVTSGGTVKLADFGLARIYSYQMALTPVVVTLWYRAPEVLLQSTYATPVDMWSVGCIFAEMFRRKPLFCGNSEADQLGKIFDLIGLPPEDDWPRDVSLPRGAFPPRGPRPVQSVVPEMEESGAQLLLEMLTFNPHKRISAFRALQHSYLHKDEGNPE
Sequence of cdk4/cyclin D1 (P24385 whole entry partner): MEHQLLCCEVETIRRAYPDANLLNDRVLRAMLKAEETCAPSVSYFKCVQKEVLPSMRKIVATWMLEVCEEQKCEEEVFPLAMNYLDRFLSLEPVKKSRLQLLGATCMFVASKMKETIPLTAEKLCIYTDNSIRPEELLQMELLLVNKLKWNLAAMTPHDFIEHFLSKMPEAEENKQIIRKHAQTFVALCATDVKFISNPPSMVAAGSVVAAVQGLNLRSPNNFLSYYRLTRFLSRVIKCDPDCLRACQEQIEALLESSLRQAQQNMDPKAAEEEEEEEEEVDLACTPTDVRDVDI

Row | Structure (SMILES) | AUC(0-inf) (in vivo; iv, 3 mg/kg) | Cmax (in vivo; iv, 3 mg/kg) | half-life (in vivo; iv, 3 mg/kg) | concentration at 0.083 h (in vivo; iv, 18 mg/kg) | concentration at 0.25 h (in vivo; iv, 18 mg/kg) | concentration at 0.5 h (in vivo; iv, 18 mg/kg) | concentration at 1 h (in vivo; iv, 18 mg/kg) | concentration at 3 h (in vivo; iv, 18 mg/kg) | concentration at 6 h (in vivo; iv, 18 mg/kg) | concentration at 8 h (in vivo; iv, 18 mg/kg) | IC50 (cdk4/cyclin D1) | IC50 (cdk2/cyclin E) | PC-3 Mean Vol. ± SD ([2]; Table 5, dose 3 mg/kg ip) | IC50 (HL-60; [5]) | IC50 (Colo-205; [8]) | IC50 (MDA-MB-435; [9]) | concentration at 0.083 h (in vivo; intravenous, 3 mg/kg) | concentration at 0.25 h (in vivo; intravenous, 3 mg/kg) | concentration at 0.5 h (in vivo; intravenous, 3 mg/kg) | concentration at 1 h (in vivo; intravenous, 3 mg/kg) | other results
1 | Cl.Cl.N[C@H]1CC[C@H](Nc2nc(NC3CCN(C(=O)c4cccc(C(F)(F)F)c4F)CC3)c3ncn(C4CCCC4)c3n2)CC1 [compound 12, trans-1-{4-[2-(4-Amino-cyclohexylamino)-9-cyclopentyl-9H-purin-6-ylamino]-piperidin-1-yl}-1-(2-fluoro-3-trifluoromethyl-phenyl)-methanone dihydrochloride] | 2550 ng·h/mL | 4110 ng/mL | 2.3 h | 4110 ± 754 ng/mL | 2360 ± 124 ng/mL | 1090 ± 36.1 ng/mL | 465 ± 34.6 ng/mL | 74.7 ± 17.4 ng/mL | 27 ± 2.7 ng/mL | 16.9 ± 1.4 ng/mL | 0.614 µM | 5 nM | 1063 ± 693 |  |  |  |  |  |  |  | IC50 (HL-60; HL-60, MTT assay, value (SD, n) where given, read-out: HL-60 Leuk. (IC50 µM)): 0.16 µM; Conc. (ng/ml) in plasma [1, 3]: BLQ; Cls [1, 4]: 19.6 mL/min/kg; IC50 (Colo-205; COLO 205, MTT assay, value (SD, n) where given, read-out: Colo-205 Colon (IC50 µM)): 0.21 µM; IC50 (MDA-MB-435; MDA-MB-435, MTT assay, value (SD, n) where given, read-out: MB-435 Breast (IC50 µM)): 0.28 µM; PC-3 Mean Vol. ± SD ([2]; Table 5, dose 10 mg/kg ip): 1107 ± 606
2 | Cl.Cl.N[C@H]1CC[C@H](Nc2nc(NC3CCN(C(=O)Oc4ccc(Br)cc4)CC3)c3ncn(C4CCCC4)c3n2)CC1 [compound 81, trans-4-[2-(4-Amino-cyclohexylamino)-9-cyclopentyl-9H-purin-6-ylamino]-piperidine-1-carboxylic acid 4-bromo-phenyl ester dihydrochloride] | 660 ng·h/mL | 1770 ng/mL | 1.7 h | 1770 ± 384 ng/mL | 394 ± 142 ng/mL | 164 ± 47.2 ng/mL | 65.3 ± 10 ng/mL | 12.7 ± 3.4 ng/mL | 5.4 ± 1.5 ng/mL | 3.5 ± 0.9 ng/mL | 0.067 µM | 39 nM | 1007 ± 1120 | 0.02 µM | 0.03 µM | 0.1 µM |  |  |  |  | Conc. (ng/ml) in plasma [1, 6]: BLQ; Cls [1, 7]: 75.8 mL/min/kg; PC-3 Mean Vol. ± SD ([2]; Table 5, dose 1 mg/kg ip): 1258 ± 523
3 | COC(=O)c1ccc(OC(=O)N2CCC(Nc3nc(N[C@H]4CC[C@H](N)CC4)nc4c3ncn4C3CCCC3)CC2)cc1.Cl.Cl [compound 83, trans-4-[2-(4-Amino-cyclohexylamino)-9-cyclopentyl-9H-purin-6-ylamino]-piperidine-1-carboxylic acid 4-methoxycarbonyl-phenyl ester dihydrochloride] | 449 ng·h/mL | 1520 ng/mL | 0.7 h | 1520 ± 612 ng/mL | 218 ± 92.8 ng/mL | 61.3 ± 32.9 ng/mL | 14.1 ng/mL | 4.1 ng/mL | 1.6 ng/mL | 6.3 ng/mL | 0.185 µM | 44 nM | 899 ± 593 | 0.06 µM | 0.07 µM | 0.17 µM |  |  |  |  | Conc. (ng/ml) in plasma [1, 3]: BLQ; Cls [1, 4]: 111.4 mL/min/kg; PC-3 Mean Vol. ± SD ([2]; Table 5, dose 10 mg/kg ip): 1426 ± 1131
4 | COc1ccc(OC(=O)N2CCC(Nc3nc(N[C@H]4CC[C@H](N)CC4)nc4c3ncn4C3CCCC3)CC2)cc1.Cl.Cl [compound 84, trans-4-[2-(4-Amino-cyclohexylamino)-9-cyclopentyl-9H-purin-6-ylamino]-piperidine-1-carboxylic acid 4-methoxy-phenyl ester dihydrochloride] | 965 ng·h/mL | 1510 ng/mL | 1.5 h | 1510 ± 377 ng/mL | 883 ± 140 ng/mL | 446 ± 79 ng/mL | 202 ± 37.3 ng/mL | 27 ± 2.4 ng/mL | 6.1 ± 0.8 ng/mL | 2.9 ± 0.2 ng/mL | 0.069 µM | 9 nM | 1386 ± 752 | 0.04 µM | 0.03 µM | 0.1 µM |  |  |  |  | Conc. (ng/ml) in plasma [1, 6]: BLQ; Cls [1, 7]: 51.8 mL/min/kg; PC-3 Mean Vol. ± SD ([2]; Table 5, dose 1 mg/kg ip): 770 ± 567
5 | Cl.Cl.N[C@H]1CC[C@H](Nc2nc(NC3CCN(C(=O)Oc4ccc(F)cc4)CC3)c3ncn(C4CCCC4)c3n2)CC1 [compound 87, trans-4-[2-(4-Amino-cyclohexylamino)-9-cyclopentyl-9H-purin-6-ylamino]-piperidine-1-carboxylic acid 4-fluoro-phenyl ester dihydrochloride] | 513 ng·h/mL | 1170 ng/mL | 1.6 h |  |  |  |  |  |  |  | 0.027 µM | 42 nM |  | 0.05 µM | 0.16 µM | 0.11 µM | 1170 ± 153 ng/mL | 372 ± 35.9 ng/mL | 141 ± 9.5 ng/mL | 65 ± 14 ng/mL | concentration at 3 h (in vivo; intravenous, 3 mg/kg): 19.2 ± 6 ng/mL; concentration at 6 h (in vivo; intravenous, 3 mg/kg): 4.3 ± 0.7 ng/mL; concentration at 8 h (in vivo; intravenous, 3 mg/kg): 3.2 ± 1.6 ng/mL; Cls [1, 10]: 97.4 mL/min/kg; Conc. in plasma ([1]; Cassette #3, 24 h): BLQ^a; PC-3 Mean Vol. ± SD ([2]; Table 4, dose 1 mg/kg ip): 3271 ± 2262; PC-3 Mean Vol. ± SD ([2]; Table 4, dose 3 mg/kg ip): 1396 ± 958
6 | Cl.Cl.N[C@H]1CC[C@H](Nc2nc(NC3CCN(C(=O)Oc4ccc(Cl)cc4)CC3)c3ncn(C4CCCC4)c3n2)CC1 [compound 88, trans-4-[2-(4-Amino-cyclohexylamino)-9-cyclopentyl-9H-purin-6-ylamino]-piperidine-1-carboxylic acid 4-chloro-phenyl ester dihydrochloride] | 642 ng·h/mL | 1480 ng/mL | 1.9 h |  |  |  |  |  |  |  | 0.204 µM | 7 nM |  | 0.07 µM | 0.04 µM | 0.02 µM | 1480 ± 272 ng/mL | 421 ± 49.9 ng/mL | 150 ± 5.9 ng/mL | 74.6 ± 16.1 ng/mL | concentration at 3 h (in vivo; intravenous, 3 mg/kg): 24.8 ± 7.4 ng/mL; concentration at 6 h (in vivo; intravenous, 3 mg/kg): 8.9 ± 1.6 ng/mL; concentration at 8 h (in vivo; intravenous, 3 mg/kg): 5.4 ± 2 ng/mL; Cls [1, 10]: 77.9 mL/min/kg; Conc. in plasma ([1]; Cassette #3, 24 h): BLQ; PC-3 Mean Vol. ± SD ([2]; Table 4, dose 1 mg/kg ip): 1601 ± 1348; PC-3 Mean Vol. ± SD ([2]; Table 4, dose 3 mg/kg ip): 2278 ± 2110
7 | Cl.Cl.N[C@H]1CC[C@H](Nc2nc(NC3CCN(C(=O)Oc4ccc([N+](=O)[O-])cc4)CC3)c3ncn(C4CCCC4)c3n2)CC1 [compound 89, trans-4-[2-(4-Amino-cyclohexylamino)-9-cyclopentyl-9H-purin-6-ylamino]-piperidine-1-carboxylic acid 4-nitro-phenyl ester dihydrochloride] | 366 ng·h/mL | 642 ng/mL | 1.8 h |  |  |  |  |  |  |  | 0.065 µM | 42 nM |  | 0.02 µM | 0.01 µM | 0.06 µM | 642 ± 49.5 ng/mL | 303 ± 34.3 ng/mL | 142 ± 2.7 ng/mL | 52.4 ± 4.2 ng/mL | concentration at 3 h (in vivo; intravenous, 3 mg/kg): 17 ± 4.7 ng/mL; concentration at 6 h (in vivo; intravenous, 3 mg/kg): 3.7 ± 1 ng/mL; concentration at 8 h (in vivo; intravenous, 3 mg/kg): 3.8 ± 0.5 ng/mL; Cls ([1]; 3 mg/kg/compound (15 mg/kg Total Dose), Cassette #4): 136.5 mL/min/kg; Conc. in plasma ([1]; Cassette #4, 24 h): BLQ; PC-3 Mean Vol. ± SD ([2]; Table 4, dose 1 mg/kg ip): 2572 ± 1052; PC-3 Mean Vol. ± SD ([2]; Table 4, dose 3 mg/kg ip): 866 ± 384
